According to PubChem BioAssay AID292 (DTP/NCI, 2004):
Values joined by “and” are separate entries in the source; they are usually repeats but may differ in a detail not shown here. Equal values may be shown once. Toxic doses and inconclusive results are not listed.

Test system: B6C3F1 mice, ip Sarcoma M5076, median survival T/C
Test: NCI In Vivo Anticancer Drug Screen. Data for tumor model Sarcoma M5076 (intraperitoneal) in B6C3F1 mice
Details: endpoint: median survival time, higher = longer survival
In short: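 Transplantable tumour in mice; compound-treated vs vehicle-treated groups. Read-out: survival. Value = treated/control ratio.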

[1] = dose: 25.0 mg/kg/injection, schedule: Q04DX004 (ip), vehicle: saline with Tween-80
[2] = dose: 50.0 mg/kg/injection, schedule: Q04DX004 (ip), vehicle: saline with Tween-80
[3] = dose: 100.0 mg/kg/injection, schedule: Q04DX004 (ip), vehicle: saline with Tween-80
[4] = dose: 200.0 mg/kg/injection, schedule: Q04DX004 (ip), vehicle: saline with Tween-80
[5] = dose: 15.0 mg/kg/injection, schedule: Q04DX004 (ip), vehicle: saline with Tween-80
[6] = dose: 30.0 mg/kg/injection, schedule: Q04DX004 (ip), vehicle: saline with Tween-80
[7] = dose: 60.0 mg/kg/injection, schedule: Q04DX004 (ip), vehicle: saline with Tween-80

CCC(/C=C/C1OC(=O)C=CC1C)=C\C(C)C/C=C/C(C)=C/C(C)C(=O)C(C)C(O)C(C)C/C(C)=C/C(=O)O (stereo unspecified)
T/C (dose: 25.0 micrograms/kg/injection, schedule: Q04DX004 (ip), vehicle: other): 104 % of control
T/C (dose: 25.0 micrograms/kg/injection, schedule: Q04DX004 (ip), vehicle: saline + alcohol): 162 % of control
T/C (dose: 25.0 micrograms/kg/injection, schedule: Q04DX004 (ip), vehicle: saline): 110 % of control and 111 % of control
T/C (dose: 25.0 micrograms/kg/injection, schedule: Q04DX004 (iv), vehicle: saline): 101 % of control
T/C (dose: 50.0 micrograms/kg/injection, schedule: Q04DX004 (ip), vehicle: other): 114 % of control
T/C (dose: 50.0 micrograms/kg/injection, schedule: Q04DX004 (ip), vehicle: saline + alcohol): 163 % of control and 175 % of control
T/C (dose: 50.0 micrograms/kg/injection, schedule: Q04DX004 (ip), vehicle: saline): 109 % of control and 114 % of control
T/C (dose: 50.0 micrograms/kg/injection, schedule: Q04DX004 (iv), vehicle: saline): 104 % of control
T/C (dose: 100.0 micrograms/kg/injection, schedule: Q04DX004 (ip), vehicle: other): 121 % of control
T/C (dose: 100.0 micrograms/kg/injection, schedule: Q04DX004 (ip), vehicle: saline + alcohol): 166 % of control and 188 % of control
T/C (dose: 100.0 micrograms/kg/injection, schedule: Q04DX004 (ip), vehicle: saline): 124 % of control
T/C (dose: 100.0 micrograms/kg/injection, schedule: Q04DX004 (iv), vehicle: saline): 110 % of control
T/C (dose: 100.0 micrograms/kg/injection, schedule: Q04DX004 (sc), vehicle: other): 106 % of control
T/C (dose: 200.0 micrograms/kg/injection, schedule: Q04DX004 (ip), vehicle: other): 121 % of control
T/C (dose: 200.0 micrograms/kg/injection, schedule: Q04DX004 (ip), vehicle: saline + alcohol): 184 % of control and 195 % of control
T/C (dose: 200.0 micrograms/kg/injection, schedule: Q04DX004 (ip), vehicle: saline): 124 % of control
T/C (dose: 200.0 micrograms/kg/injection, schedule: Q04DX004 (iv), vehicle: saline): 102 % of control
T/C (dose: 200.0 micrograms/kg/injection, schedule: Q04DX004 (sc), vehicle: other): 106 % of control
T/C (dose: 400.0 micrograms/kg/injection, schedule: Q04DX004 (ip), vehicle: other): 152 % of control
T/C (dose: 400.0 micrograms/kg/injection, schedule: Q04DX004 (ip), vehicle: saline + alcohol): 163 % of control and 184 % of control and 195 % of control
T/C (dose: 400.0 micrograms/kg/injection, schedule: Q04DX004 (iv), vehicle: saline): 105 % of control
T/C (dose: 400.0 micrograms/kg/injection, schedule: Q04DX004 (sc), vehicle: other): 106 % of control
T/C (dose: 800.0 micrograms/kg/injection, schedule: Q04DX004 (ip), vehicle: saline + alcohol): 191 % of control and 217 % of control
T/C (dose: 800.0 micrograms/kg/injection, schedule: Q04DX004 (ip), vehicle: saline): 152 % of control
T/C (dose: 800.0 micrograms/kg/injection, schedule: Q04DX004 (iv), vehicle: saline): 116 % of control
T/C (dose: 800.0 micrograms/kg/injection, schedule: Q04DX004 (sc), vehicle: other): 119 % of control

C=C1c2cccc(O)c2C(O)=C2C(=O)[C@]3(O)C(O)=C(C(N)=O)C(=O)[C@@H](N(C)C)[C@@H]3[C@@H](O)[C@H]12
T/C (dose: 12.5 mg/kg/injection, schedule: Q04DX004 (ip), vehicle: Klucel (hydroxypropylcellulose) (HPC)): 105 % of control
T/C (dose: 25.0 mg/kg/injection, schedule: Q04DX004 (ip), vehicle: Klucel (hydroxypropylcellulose) (HPC)): 105 % of control
T/C (dose: 50.0 mg/kg/injection, schedule: Q04DX004 (ip), vehicle: Klucel (hydroxypropylcellulose) (HPC)): 101 % of control
T/C (dose: 100.0 mg/kg/injection, schedule: Q04DX004 (ip), vehicle: Klucel (hydroxypropylcellulose) (HPC)): 102 % of control

CCc1n[nH]c(CC)c1CCCCCCOc1ccc(OC)cc1Cl
T/C [1]: 106 % of control
T/C (dose: 37.5 mg/kg/injection, schedule: Q04DX004 (ip), vehicle: saline with Tween-80): 100 % of control
T/C [2]: 107 % of control
T/C (dose: 75.0 mg/kg/injection, schedule: Q04DX004 (ip), vehicle: saline with Tween-80): 91 % of control
T/C [3]: 97 % of control
T/C [4]: 91 % of control

c1ccc2c(c1)[nH]c1c2c(N2CCOCC2)nn2cnnc12
T/C (dose: 12.5 mg/kg/injection, schedule: Q04DX004 (ip), vehicle: saline with Tween-80): 92 % of control
T/C [1]: 88 % of control and 96 % of control
T/C [2]: 100 % of control
T/C [3]: 95 % of control
T/C [4]: 87 % of control

N#Cc1c(-c2ccccc2)c(-c2ccccc2)nn(CC(=O)O)c1=O
T/C (dose: 50.0 mg/kg/injection, schedule: Q04DX004 (ip), vehicle: distilled water + Tween-80): 102 % of control
T/C (dose: 100.0 mg/kg/injection, schedule: Q04DX004 (ip), vehicle: distilled water + Tween-80): 102 % of control
T/C (dose: 200.0 mg/kg/injection, schedule: Q04DX004 (ip), vehicle: distilled water + Tween-80): 97 % of control

COc1cccc(Sc2ccc([N+](=O)[O-])c3no[n+]([O-])c23)c1
T/C (dose: 3.75 mg/kg/injection, schedule: Q04DX004 (ip), vehicle: saline with Tween-80): 105 % of control
T/C (dose: 7.5 mg/kg/injection, schedule: Q04DX004 (ip), vehicle: saline with Tween-80): 106 % of control
T/C [5]: 105 % of control
T/C [6]: 101 % of control
T/C [7]: 98 % of control

NC(=O)c1c[nH]n(C2OC(CO)C(O)C2O)c1=O (stereo unspecified)
T/C (dose: 12.5 mg/kg/injection, schedule: Q04DX004 (ip), vehicle: saline): 99 % of control
T/C (dose: 25.0 mg/kg/injection, schedule: Q04DX004 (ip), vehicle: saline): 98 % of control
T/C (dose: 50.0 mg/kg/injection, schedule: Q04DX004 (ip), vehicle: saline): 105 % of control
T/C (dose: 100.0 mg/kg/injection, schedule: Q04DX004 (ip), vehicle: saline): 98 % of control
T/C (dose: 200.0 mg/kg/injection, schedule: Q04DX004 (ip), vehicle: saline): 101 % of control

Cc1nnc2c3nccnc3c(Cl)nn12
T/C [5]: 102 % of control
T/C [6]: 98 % of control
T/C [7]: 101 % of control
T/C (dose: 120.0 mg/kg/injection, schedule: Q04DX004 (ip), vehicle: saline with Tween-80): 108 % of control

N=C1C=CC2C(=Nc3ccccc3[N+]2=O)N1CCO (stereo unspecified)
T/C [1]: 91 % of control
T/C [2]: 103 % of control
T/C [3]: 104 % of control
T/C [4]: 100 % of control

NCc1cc(O)c(O)c(O)c1
T/C (dose: 75.0 mg/kg/injection, schedule: Q04DX004 (ip), vehicle: saline): 100 % of control and 106 % of control
T/C (dose: 150.0 mg/kg/injection, schedule: Q04DX004 (ip), vehicle: saline): 100 % of control and 104 % of control
T/C (dose: 300.0 mg/kg/injection, schedule: Q04DX004 (ip), vehicle: saline): 100 % of control and 104 % of control
T/C (dose: 600.0 mg/kg/injection, schedule: Q04DX004 (ip), vehicle: saline): 101 % of control and 118 % of control
T/C (dose: 1200.0 mg/kg/injection, schedule: Q04DX004 (ip), vehicle: saline): 104 % of control

O=C(O)CC(Sc1ccc(Cl)cc1)C(=O)Nc1ccccc1 (stereo unspecified)
T/C (dose: 31.25 mg/kg/injection, schedule: Q04DX004 (ip), vehicle: saline with Tween-80): 99 % of control
T/C (dose: 62.5 mg/kg/injection, schedule: Q04DX004 (ip), vehicle: saline with Tween-80): 102 % of control
T/C (dose: 125.0 mg/kg/injection, schedule: Q04DX004 (ip), vehicle: saline with Tween-80): 90 % of control
T/C (dose: 500.0 mg/kg/injection, schedule: Q04DX004 (ip), vehicle: saline with Tween-80): 94 % of control

C#CCN(Cc1ccc2nc(N)[nH]c(=O)c2c1)c1ccc(C(=O)NC(CCC(=O)O)C(=O)O)cc1 (stereo unspecified)
T/C (dose: 25.0 mg/kg/injection, schedule: Q04DX004 (ip), vehicle: water): 98 % of control
T/C (dose: 50.0 mg/kg/injection, schedule: Q04DX004 (ip), vehicle: water): 98 % of control and 118 % of control
T/C (dose: 100.0 mg/kg/injection, schedule: Q04DX004 (ip), vehicle: water): 120 % of control
T/C (dose: 200.0 mg/kg/injection, schedule: Q04DX004 (ip), vehicle: water): 162 % of control
T/C (dose: 400.0 mg/kg/injection, schedule: Q04DX004 (ip), vehicle: water): 152 % of control and 175 % of control

C=C1C(O)C2OC3(CCC(/C=C/C(C)C4CC5(C)SC5C5(OC(CC(C)(O)C(=O)O)CCC5O)O4)O3)CCC2OC1C(O)CC(C)C1OC2(CCCCO2)CCC1C (stereo unspecified)
T/C (dose: 2.5 micrograms/kg/injection, schedule: Q04DX004 (ip), vehicle: saline + alcohol): 101 % of control
T/C (dose: 5.0 micrograms/kg/injection, schedule: Q04DX004 (ip), vehicle: saline + alcohol): 96 % of control
T/C (dose: 10.0 micrograms/kg/injection, schedule: Q04DX004 (ip), vehicle: saline + alcohol): 99 % of control
T/C (dose: 20.0 micrograms/kg/injection, schedule: Q04DX004 (ip), vehicle: saline + alcohol): 95 % of control
T/C (dose: 40.0 micrograms/kg/injection, schedule: Q04DX004 (ip), vehicle: saline + alcohol): 95 % of control
